In patent publication US9585885B2, “Substituted pyrido[2,3-g]quinazolines as dopamine D2 receptor agonists” (KISSEI PHARMACEUTICAL CO., LTD., priority 2012, dated 2017):

Legend:
[1] = test system: unilateral 6-hydroxydopamine-lesioned hemi-Parkisonian rats; test: Contralateral rotational behavior in unilateral 6-hydroxydopamine-lesioned hemi-parkinsonian rats; format: in vivo, rat; details: orally 10 mg/kg, mean value; for Total number of rotations: contralateral rotations up to 24 hours after administration; for Duration: measured up to 24 hours after administration, duration of rotational response
Protocol: 6-OHDA was dissolved at 2 mg/mL in a physiolosical saline solution containing 0.2% L-ascorbic acid. Desipramine was dissolved at 10 mg/mL in a physiolosical saline solution in a hot-water bath. Apomorphine was dissolved at 0.1 mg/mL in a physiolosical saline solution. Ropinirole was dissolved in distilled water. Test compounds were dissolved in a solution containing 2% DMA, 100 or 200 mol % hydrochloric acid, and 98% of a 0.5% methyl cellulose solution. […] (Eur J Pharmacol, 2000, vol. 408, P. 249-255) with a minor modification. Male Sprague-Dawley rats (6-weeks-old, Charles River Laboratories Japan Inc.) were anaesthetized with intraperitoneal somnopentyl (45 mg/kg) injection and placed in a stereotaxic frame (Narishige). In order to prevent 6-OHDA-induced damage of noradrenergic neurons, desipramine (25 mg/kg) was intraperitoneally injected 30 minutes before the 6-OHDA injection. After the bregma identification via a middle calvarial incision, the skull was drilled using a dental drill at the site of 6-OHDA injection. The lesion was made by injecting 6-OHDA (8 μg in 4 μL at a speed of 1 μL/minute) unilaterally into the left medial forebrain bundle by using a injection cannula (30 gauge needle) connected to a microsyringe (Hamilton) (the lesion coordinates; A/P −2.5 mm, L/M −1.8 mm, and V/D −8.0 mm, from the bregma point and surface of the skull). The cannula was carefully removed from the animal after keeping placed on the lesion site for 5 minutes. The skull was filled its hole with dental cement, disinfected, and the scalp incision was surgically sutured. Animals recovered from anesthesia were housed as usual until the day of the experiment. Three weeks after the lesion, rats were tested on the basis of their contralateral rotational behavior (single rotation was defined as a 360° turn) in response to 0.1 mg/kg apomorphine given subcutaneously. For behavioral observation, rats were placed in plastic cylinders of a diameter of 30 cm, and its contralateral rotational behaviors were videotaped and quantified by rat-rotation auto counting system R-RACS (Kissei Wellcom). On the experimental day, animals were fasted overnight, and test compounds were orally administrated at doses of 10 mg/kg. The drug potency was measured until up to 24 hours after administration as the number of contralateral rotation. […] Total number of rotations and the duration of the response in experimental period were presented as mean value. As comparative example, ropinirole as non-ergot dopamine D2 receptor agonist, was examined in a similar fashion.

[2] = biological target: T1, human serotonin 5-HT2B receptor (Homo sapiens, UniProt P41595); test: Stimulating activities of human serotonin 5-HT2B receptor, intracellular calcium in forced expression HEK293 cells; format: cell-based; details: intracellular calcium concentration, mean value (n=2)
T1 construct: expressed in transfected cells; host or cells: HEK293 (transient transfection)
T1 sequence (P41595 whole entry): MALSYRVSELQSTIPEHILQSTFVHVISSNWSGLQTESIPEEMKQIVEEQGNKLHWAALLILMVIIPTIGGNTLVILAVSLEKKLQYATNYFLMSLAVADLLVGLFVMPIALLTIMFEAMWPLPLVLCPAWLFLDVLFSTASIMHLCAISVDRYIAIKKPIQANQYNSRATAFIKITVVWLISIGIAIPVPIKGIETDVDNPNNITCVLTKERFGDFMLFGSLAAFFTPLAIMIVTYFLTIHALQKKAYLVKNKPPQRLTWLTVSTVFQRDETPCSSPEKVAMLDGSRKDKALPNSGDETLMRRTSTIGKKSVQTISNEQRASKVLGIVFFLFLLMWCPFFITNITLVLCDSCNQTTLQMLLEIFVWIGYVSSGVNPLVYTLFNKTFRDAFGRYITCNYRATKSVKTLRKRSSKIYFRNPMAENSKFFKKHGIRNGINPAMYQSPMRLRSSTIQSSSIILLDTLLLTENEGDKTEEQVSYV
Protocol: Identification Test of Stimulating Activities on Human Serotonin 5-HT2B Receptor
Mostly confluent HEK293 cells were washed with PBS, followed by exfoliation with 0.05% trypsin-EDTA and the cells were suspended in D-MEM liquid medium (phenol red-free, low glucose, pyruvic acid were contained) containing fetal bovine serum (final concentration: 10%) and GlutaMax (registered mark) I (final concentration: 2 mM). The suspension was scattered at 5×10^4 cells/100 μL/well on poly-D-lysine-coated 96-well microplate (BD BioCoat (registered mark)). The scattered cells were cultured in 5% CO2 incubator at 37° C. Human serotonin 5-HT2B receptor expression plasmid was transfected in that cells according to the procedure seeing below.
Human serotonin 5-HT2B receptor expression plasmid and Lipofectamine (registered mark) 2000 (Invitrogen) were diluted to 0.008 g/L and 0.016 g/L each other with OPTI-MEM (registered mark) I Reduced-Serum Medium and incubated at room temperature. After incubation, the human serotonin 5-HT2B receptor expression plasmid-diluted liquid and Lipofectamine (registered mark) 2000-diluted liquid were mixed at an equal volume and incubated at room temperature to form a complex. The complex was dispensed at 50 μL/well on the cells prepared above. The cells were incubated in 5% CO2 incubator at 37° C. for 2 days. After incubation, the cells were used as human serotonin 5-HT2B receptor forced expression cells for measurement of intracellular calcium concentration.
The stimulating activities of human serotonin 5-HT2B receptor was determined by measuring of intracellular calcium concentration. The 30 mM dimethyl sulfoxide (DMSO) solution contained test compounds or serotonin hydrochloride (Sigma) as positive control, was diluted with assay buffer ((HBSS), 20 mM HEPES, 1.3 mM calcium chloride, 0.5 mM magnesium chloride and 0.4 mM magnesium sulfate were contained, pH7.4) to appropriate concentration.
The forced expression cells were washed with assay buffer, and 100 μL/well of fluorescent calcium indicator (Fluo-4 NW Calcium Assay Kit) was added and incubated in 5% CO2 incubator at 37° C. After incubation, 50 μL/well of each test compound was added, and the concentration of intracellular calcium was measured as fluorescent signal with FlexStation (registered mark) II (Molecular Devices). The data was analyzed by nonlinear regression and sigmoidal dose-response curve fitting using GraphPad PRISM 4.0, and values of EC50 (concentration of the compound producing half the maximal effect of the compound) were calculated. The data was presented as mean value (n=2).

[3] = biological target: T2, human dopamine D2 receptor (Homo sapiens, UniProt P14416); test: Stimulating activities of human dopamine D2 receptor, [35S]GTPγS binding to hD2R#7 (HEK293) membrane homogenates; format: biochemical; details: [35S]GTPγS binding, membrane homogenates, mean value (n=2); read-out: EC50
T2 construct: expressed in transfected cells
T2 sequence (P14416 whole entry): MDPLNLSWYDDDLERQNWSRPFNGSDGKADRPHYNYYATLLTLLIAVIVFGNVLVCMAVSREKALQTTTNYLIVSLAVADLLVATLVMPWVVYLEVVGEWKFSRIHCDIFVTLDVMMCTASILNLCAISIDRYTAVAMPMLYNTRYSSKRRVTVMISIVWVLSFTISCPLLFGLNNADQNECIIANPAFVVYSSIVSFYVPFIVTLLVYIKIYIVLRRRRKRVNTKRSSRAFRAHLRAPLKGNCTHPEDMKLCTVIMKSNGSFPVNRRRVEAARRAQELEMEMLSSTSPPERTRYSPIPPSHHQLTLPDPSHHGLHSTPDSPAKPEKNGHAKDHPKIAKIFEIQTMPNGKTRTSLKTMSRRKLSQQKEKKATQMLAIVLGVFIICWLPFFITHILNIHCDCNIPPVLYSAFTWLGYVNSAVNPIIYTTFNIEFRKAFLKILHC
Protocol: Identification Test of Stimulating Activities on Human Dopamine D2 Receptor
The cells, which were grown to confluence in 150 mm dishes (IWAKI), were harvested with isotonic buffer (50 mM Tris (Sigma), 2 mM ethylenediamine-tetraacetic acid (Invitrogen), and 125 mM sodium chloride (Wako Pure Chemicals), pH 7.4) and centrifuged at 1880×g and 4° C. for 10 minutes, and the cell pellets were then suspended in isotonic buffer. After being subjected to one cycle of freezing and thawing, the cells were centrifuged at 1880×g and 4° C. for 10 minutes, and the cell pellets were suspended in isotonic buffer. The cells were centrifuged at 1880×g and 4° C. for 10 minutes, and the cell pellets were suspended in isotonic buffer and homogenate buffer (10 mM sodium bicarbonate (Nacalai) and 5 mM ethylenediamine-tetraacetic acid, pH 7.5). The volume ratio of isotonic-to-homogenate buffer was 2. The cells were sonicated and centrifuged at 1880×g and 4° C. for 10 minutes, and the supernatants were ultracentrifuged at 80000×g and 4° C. for 30 minutes. The final cell pellets were suspended in homogenate buffer containing protease inhibitor cocktail (Nacalai) and stored at −80° C. until use. The protein concentration was determined using BCA Protein Assay Kit (Pierce) in accordance with the manufacturer's instructions.
The stimulating activities of human dopamine D2 receptor was determined by measuring the binding potential of [^35S]-guanosine 5′-[gamma-thio]triphosphate ([^35S]GTPγS, PerkinElmer) according to the method described by Newman-Tancredi A. et al. (Naunyn-Schmiedeberg's Arch Pharmacol, 1999, vol. 359, pp. 447-453) with a minor modification. Test compounds and dopamine hydrochloride (Fluka) as positive control were dissolved in dimethyl sulfoxide (CARLBIOCHEM), resulting in 30 mM. The both compounds were diluted with assay buffer (50 mM Tris, 100 mM sodium chloride, 5 mM magnesium chloride (Nacalai), 1 mM ethylenediamine-tetraacetic acid, 1 mM dithiothreitol (Wako Pure Chemicals), 10 μM guanosine diphosphate (Wako Pure Chemicals) and 0.5% bovine serum albumin (Sigma), pH 7.4) to a final concentration of 100 pM (only test compounds), 1 nM, 10 nM, 100 nM, 1 μM, 10 μM and 100 μM (only dopamine hydrochloride). The above membrane homogenates and [^35S]GTPγS were diluted with assay buffer to a final concentration of 0.06 mg/mL and 0.6 nM, respectively. The serial diluted compounds (50 μL), the diluted membrane homogenates (50 μL) and the diluted [^35S]GTPγS (50 μL) were mixed on multi-screen 96-well plate (Millipore) and shaken lightly at room temperature for 60 minutes. The reaction was terminated by vacuum filtration with three times washes of ice-cold wash buffer (50 mM Tris, 100 mM sodium chloride, 5 mM magnesium chloride, and 1 mM ethylenediamine-tetraacetic acid, pH 7.4). After drying the bottoms of the plate at 60° C., MicroScinti-40 (PerkinElmer) (30 μL) was added in the plate. The tops of the plate were sealed by TopSeal-A (PerkinElmer), and the radioactivity was determined in a TopCount NXT (registered mark)(PerkinElmer) after shaking lightly for 5-10 minutes. The data was analyzed by nonlinear regression and sigmoidal dose-response curve fitting using GraphPad PRISM 4.0 (GraphPad Software), and values of EC50 (concentration of the compound producing half the maximal effect of the compound) were calculated. The data was presented as mean value (n=2).

For `CCCN(CCN(C)C)C(=O)N[C@H]1C[C@@H]2Cc3nc(N)ncc3C[C@H]2N(CCC)C1` [Compound 1-2, 3-[(5aR,8S,9aR)-2-amino-6-propyl-5,5a,6,7,8,9,9a,10-octahydropyrido[2,3-g]quinazolin-8-yl]-1-[2-(dimethylamino)ethyl]-1-propylurea], the “Total number of rotations” value [1] was 2580.0, the Duration [1] was 307.5 minuets and the EC50 [2] was greater than 10000 nM. For the same compound, the EC50 [3] was 252 nM.
In the case of `CCCN1C[C@@H](NC(=O)N(C)CCN(CC)CC)C[C@@H]2Cc3nc(N)ncc3C[C@H]21` [Compound 1-4, 3-[(5aR,8S,9aR)-2-amino-6-propyl-5,5a,6,7,8,9,9a,10-octahydropyrido[2,3-g]quinazolin-8-yl]-1-[2-(diethylamino)ethyl]-1-methylurea], the “Total number of rotations” value [1] is reported as 3975.0, the Duration [1] is reported as 538.8 minuets and the EC50 [2] is reported as greater than 10000 nM. For the same compound, the EC50 [3] was 111 nM.
